{"source": "patent US20060240048A1", "about": "(priority 2002, published 2006)", "molecular_target": "T1, human cannabinoid CB2 receptor (Homo sapiens, UniProt P34972)", "T1 construct": "expressed in transfected cells; host or cells: Saccharomyces cerevisiae strain MMY23", "T1 sequence (P34972 whole entry)": "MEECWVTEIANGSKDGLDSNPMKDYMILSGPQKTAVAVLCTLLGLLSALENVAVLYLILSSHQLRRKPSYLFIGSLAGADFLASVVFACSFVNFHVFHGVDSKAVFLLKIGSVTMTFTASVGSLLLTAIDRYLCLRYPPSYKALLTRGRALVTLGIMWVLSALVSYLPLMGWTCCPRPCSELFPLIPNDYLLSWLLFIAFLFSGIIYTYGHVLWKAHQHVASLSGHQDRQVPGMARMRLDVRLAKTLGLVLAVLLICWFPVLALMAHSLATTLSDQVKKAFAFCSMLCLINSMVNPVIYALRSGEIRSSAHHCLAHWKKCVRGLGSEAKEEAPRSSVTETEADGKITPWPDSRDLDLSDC", "test": "Cannabinoid CB2 receptor agonist activity, yeast reporter assay (FDGlu fluorescence);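 on Emax: 100% equals maximal response of reference agonist HU210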", "assay_type": "cell-based", "conditions": "for Emax: read-out: efficacy value (Emax) at the cloned human cannabinoid CB2 receptor", "procedure": "The cannabinoid CB2 receptor agonist activity of the compounds of formula (I) was determined in accordance with the following experimental method.\nYeast (Saccharomyces cerevisiae) cells expressing the human cannabinoid CB2 receptor were generated by integration of an expression cassette into the ura3 chromosomal locus of yeast strain MMY23. This cassette consisted of DNA sequence encoding the human CB2 receptor flanked by the yeast GPD promoter to the 5′ end of CB2 and a yeast transcriptional terminator sequence to the 3′ end of CB2. MMY23 expresses a yeast/mammalian chimeric G-protein alpha subunit in which the C-terminal 5 amino acids of Gpa1 are replaced with the C-terminal 5 amino acids of human Gαi3 (as described in Brown et al. (2000), Yeast 16:11-22). Cells were grown at 30° C. in liquid Synthetic Complete (SC) yeast media (Guthrie and Fink (1991), Methods in Enzymology, Vol. 194) lacking uracil, tryptophan, adenine and leucine to late logarithmic phase (approximately 6 OD600/ml).\nAgonists were prepared as 10 mM stocks in DMSO. […] Agonist solutions in DMSO (1% final assay volume) were transferred into black, clear bottom, microtitre plates from NUNC (96- or 384-well). […] This mixture (50 ul per well for 384-well plates, 200 ul per well for 96-well plates) was added to agonist in the assay plates (Multidrop 384, Labsystems). After incubation at 30° C. for 24 hours, fluorescence resulting from degradation of FDGlu to fluorescein due to exoglucanase, an endogenous yeast enzyme produced during agonist-stimulated cell growth, was determined using a Spectrofluor microtitre plate reader (Tecan; excitation wavelength: 485 nm; emission wavelength: 535 nm). Fluorescence was plotted against compound concentration and iteratively curve fitted using a four parameter fit to generate a concentration effect value.\nwhere Max[compound X] and Min[compound X] are the fitted maximum and minimum respectively from the concentration effect curve for compound X, and Max[HU210] and Min[HU210] are the fitted maximum and minimum respectively from the concentration effect curve for (6aR,10aR)-3-(1,1′-Dimethylheptyl)-6a,7,10,10a-tetrahydro-1-hydroxy-6,6-dimethyl-6H-dibenzo[b,d]pyran-9-methanol (HU210; available from Tocris). Equieffective molar ratio (EMR) values were calculated from the equation EMR=EC50 [compound X]/EC50 [HU210]\nWhere EC50 [compound X] is the EC50 of compound X and EC50 [HU210] is the EC50 of HU210."}
{"smiles": "COc1cccc(Nc2cc(C(C)C)c(C(=O)NCC3CCC3)cn2)c1", "note": "[Example 38, N-Cyclobutylmethyl-4-isopropyl-6-(3-methoxy-phenylamino)-nicotinamide]", "values": [{"measurement": "EC50", "value": "< 300", "unit": "nM"}, {"measurement": "Emax", "value": "> 50", "unit": "%"}]}
{"smiles": "CC(C)c1cc(Nc2cccc(F)c2)ncc1C(=O)NCC1CCOCC1", "note": "[Example 39, 6-(3-Fluoro-phenylamino)-4-isopropyl-N-(tetrahydro-pyran-4-ylmethyl)-nicotinamide]", "values": [{"measurement": "Emax", "value": "> 50", "unit": "%"}]}
{"smiles": "COc1cccc(Nc2cc(C(C)C)c(C(=O)NCC3CCOCC3)cn2)c1", "note": "[Example 41, 4-Isopropyl-6-(3-methoxy-phenylamino)-N-(tetrahydro-pyran-4-ylmethyl)-nicotinamide]", "values": [{"measurement": "Emax", "value": "> 50", "unit": "%"}]}
{"smiles": "CC(C)c1cc(N(C)c2ccc(Cl)c(Cl)c2)ncc1C(=O)NCC1CCOCC1", "note": "[Example 44, 6-[(3,4-Dichloro-phenyl)-methyl-amino]-4-isopropyl-N-(tetrahydro-pyran-4-ylmethyl)-nicotinamide]", "values": [{"measurement": "Emax", "value": "> 50", "unit": "%"}]}
{"smiles": "CC(C)c1cc(Nc2cccc(Cl)c2)ncc1C(=O)NC1CCC1", "note": "[Example 50, 6-(3-Chloro-phenylamino)-N-cyclobutyl-4-isopropyl-nicotinamide]", "values": [{"measurement": "EC50", "value": "< 300", "unit": "nM"}, {"measurement": "Emax", "value": "> 50", "unit": "%"}]}
{"smiles": "CC(C)c1cc(Nc2cccc(Cl)c2)ncc1C(=O)NCC1CC1", "note": "[Example 51, 6-(3-Chloro-phenylamino)-N-cyclopropylmethyl-4-isopropyl-nicotinamide]", "values": [{"measurement": "EC50", "value": "< 300", "unit": "nM"}, {"measurement": "Emax", "value": "> 50", "unit": "%"}]}
{"smiles": "CCC(CC)CNC(=O)c1cnc(Nc2cccc(Cl)c2)cc1C(C)C", "note": "[Example 52, 6-(3-Chloro-phenylamino)-N-(2-ethyl-butyl)-4-isopropyl-nicotinamide]", "values": [{"measurement": "Emax", "value": "> 50", "unit": "%"}]}
{"smiles": "CC(C)c1cc(Nc2cccc(Cl)c2)ncc1C(=O)NC1CCCCC1", "note": "[Example 53, 6-(3-Chloro-Phenylamino)-N-cyclohexyl-4-isopropyl-nicotinamide]", "values": [{"measurement": "EC50", "value": "< 300", "unit": "nM"}, {"measurement": "Emax", "value": "> 50", "unit": "%"}]}
{"smiles": "CC(C)c1cc(Nc2cccc(Cl)c2)ncc1C(=O)NCC1(O)CCCCC1", "note": "[Example 54, 6-(3-Chloro-phenylamino)-N-(1-hydroxy-cyclohexylmethyl)-4-isopropyl-nicotinamide]", "values": [{"measurement": "EC50", "value": "< 300", "unit": "nM"}, {"measurement": "Emax", "value": "> 50", "unit": "%"}]}
{"smiles": "CC(C)c1cc(Nc2cccc(Cl)c2)ncc1C(=O)N1CCCCC1", "note": "[Example 55, 1-[6-(3-Chloro-phenylamino)-4-isopropyl-pyridin-3-yl]-1-piperidin-1-yl-methanone]", "values": [{"measurement": "EC50", "value": "< 300", "unit": "nM"}, {"measurement": "Emax", "value": "> 50", "unit": "%"}]}
{"smiles": "COCCNC(=O)c1cnc(Nc2cccc(Cl)c2)cc1C(C)C", "note": "[Example 57, 6-(3-Chloro-phenylamino)-4-isopropyl-N-(2-methoxy-ethyl)-nicotinamide]", "values": [{"measurement": "Emax", "value": "> 50", "unit": "%"}]}
{"smiles": "CC(C)c1cc(Nc2cccc(Cl)c2)ncc1C(=O)NC1CCOCC1", "note": "[Example 58, 6-(3-Chloro-phenylamino)-4-isopropyl-N-(tetrahydro-pyran-4-yl)-nicotinamide]", "values": [{"measurement": "Emax", "value": "> 50", "unit": "%"}]}
{"smiles": "CC(C)(C)c1cc(Nc2cccc(Cl)c2)ncc1C(=O)NCC1CCCCC1", "note": "[Example 69, 4-tert-Butyl-6-(3-chloro-phenylamino)-N-cyclohexylmethyl-nicotinamide]", "values": [{"measurement": "EC50", "value": "< 300", "unit": "nM"}, {"measurement": "Emax", "value": "> 50", "unit": "%"}]}
{"smiles": "CC(C)(C)c1cc(Nc2ccc(Cl)cc2Cl)ncc1C(=O)NCC1CCCCC1", "note": "[Example 70, 4-tert-Butyl-6-(2,4-dichloro-phenylamino)-N-cyclohexylmethyl-nicotinamide]", "values": [{"measurement": "EC50", "value": "< 300", "unit": "nM"}, {"measurement": "Emax", "value": "> 50", "unit": "%"}]}
{"smiles": "CC(C)(C)c1cc(Nc2cccc(Cl)c2)ncc1C(=O)NCC1CCOCC1", "note": "[Example 71, 4-tert-Butyl-6-(3-phenylamino)-N-(tetrahydro-pyran-4-ylmethyl)-nicotinamide]", "values": [{"measurement": "EC50", "value": "< 300", "unit": "nM"}, {"measurement": "Emax", "value": "> 50", "unit": "%"}]}
{"smiles": "CC(C)(C)c1cc(Nc2cccc(F)c2)ncc1C(=O)NCC1CCOCC1", "note": "[Example 72, 4-tert-Butyl-6-(3-fluoro-phenylamino)-N-(tetrahydro-pyran-4-ylmethyl)-nicotinamide]", "values": [{"measurement": "EC50", "value": "< 300", "unit": "nM"}, {"measurement": "Emax", "value": "> 50", "unit": "%"}]}
{"smiles": "CC(C)c1cc(Nc2cc(Cl)cc(Cl)c2)ncc1C(=O)NCC1CCOCC1", "note": "[Example 75, 6-(3,5-Dichloro-phenylamino)-4-isopropyl-N-(tetrahydro-pyran-4-ylmethyl)-nicotinamide]", "values": [{"measurement": "EC50", "value": "< 300", "unit": "nM"}, {"measurement": "Emax", "value": "> 50", "unit": "%"}]}
